Results published in patent US10842779B2, “Heterocyclic compounds and their use in preventing or treating bacterial infections” (priority 2015, dated 2020).
Read-outs that look alike come from different tables or passages of the source.

Legend:
Format in all cases: cell-based
E. coli = assay: MIC of compounds alone, broth microdilution; settings: Escherichia coli
Description: (§1) Method 2: MIC of Compounds and Synergy with Ceftazidime Against Bacterial Isolates (Table 2 and 3)
(§2) Compounds of the present invention were assessed against genotyped bacterial strains alone or in combination with the β-lactam ceftazidime. In the assays, MICs of said compounds, or of ceftazidime at fixed concentrations of said compounds were determined by the broth microdilution method according to the Clinical Laboratory Standards Institute (CLSI—M7-A7). Briefly, compounds alone according to the invention were prepared in DMSO and spotted (2 μL each) on sterile polystyrene plates (Corning, 3788). Compounds and ceftazidime dilutions were prepared in DMSO and spotted (1 μL each) on sterile polystyrene plates (Corning, 3788). Log phase bacterial suspensions were adjusted to a final density of 5×10^5 cfu/mL in cation-adjusted Mueller-Hinton broth (Beckton-Dickinson) and added to each well (98 μL). Microplates were incubated for 16-20 h at 35° C. in ambient air. The MIC of the compounds was defined as the lowest concentration of said compounds that prevented bacterial growth as read by visual inspection. The MIC of ceftazidime at each compound concentration was defined as the lowest concentration of ceftazidime that prevented bacterial growth as read by visual inspection.

K. oxytoca = assay: MIC of compounds alone, broth microdilution; settings: Klebsiella oxytoca; alone; KOX UFR21; beta-lactamases TEM-1, CTX-M-15 OXA-48; read-out: MIC
Description: as §1, §2

K. pneumoniae = assay: MIC of compounds alone, broth microdilution; settings: Klebsiella pneumoniae, read-out: MIC
Description: as §1, §2

M. morganii = assay: MIC of compounds alone, broth microdilution; settings: Morganella morganii, MMO 200321, beta-lactamases TEM-1, CTX-M-15 OXA-1
Description: as §1, §2

P. aeruginosa = assay: MIC of compounds alone, broth microdilution; settings: Pseudomonas aeruginosa, alone, read-out: MIC
Description: as §1, §2

P. mirabilis = assay: MIC of compounds alone, broth microdilution; settings: Proteus mirabilis, PMI UFR82, beta-lactamases CMY-2
Description: as §1, §2

S. marcescens [1] = assay: MIC of compounds alone, broth microdilution; settings: Serratia marcescens, SMA UFR30, beta-lactamases OXA-405
Description: as §1, §2

S. marcescens [2] = assay: Synergy with ceftazidime: MIC of ceftazidime at fixed concentration of compound; settings: Serratia marcescens; SMA UFR30; beta-lactamases OXA-405; read-out: MIC of CAZ + compound (4 μg/mL)
Description: as §1, §2

Measured: MIC

O=C(O)C(F)(F)F.O=C1N2C[C@H](c3scnc3[C@H]2c2ncc[nH]2)N1OS(=O)(=O)[O-].[Na+] (relative stereo) [Example 1, Sodium and 2,2,2-trifluoroacetate [trans-7-(1H-imidazol-3-ium-2-yl)-9-oxo-3-thia-5,8,10-triaza-tricyclo[6.2.1.0^2,6]undeca-2(6),4-dien-10-yl]sulfate]
4 µg/mL: K. oxytoca | K. pneumoniae; BAA1898, alone, KPN BAA-1898, beta-lactamases TEM-1, SHV-11, SHV-12 KPC-2 | K. pneumoniae; alone, KPN 131119, beta-lactamases TEM-1, SHV-11, CTX-M-15 OXA-1 OXA-48 | K. pneumoniae; alone, KPN 160143, beta-lactamases TEM-1, SHV-1, CTX-M-15 KPC-2 OXA-1 | K. pneumoniae; alone, KPN 190128, beta-lactamases TEM-1, SHV-32, CTX-M-15 OXA-1 | K. pneumoniae; alone, KPN 190425, beta-lactamases TEM-1, SHV-1, CTX-M-15 OXA-1 | K. pneumoniae; alone, KPN 260251, beta-lactamases TEM-1, SHV-11, SHV-12, CTX-M-15 KPC-2 | K. pneumoniae; alone, KPN 700603, beta-lactamases SHV-18 OXA-2 | K. pneumoniae; alone, KPN ARA, beta-lactamases TEM-1, SHV-11, CTX-M-15 OXA-1 OXA-48 | K. pneumoniae; alone, KPN UFR22_O, beta-lactamases TEM-1, SHV-1 OXA-48 | K. pneumoniae; alone, KPN UFR27, beta-lactamases TEM-1, SHV-28, CTX-M-15 OXA-204 | K. pneumoniae; alone, KPN UFR42, beta-lactamases SHV-2, CTX-M-15 OXA-1 OXA-181 NDM-1 | K. pneumoniae; alone, KPN UFR53, beta-lactamases TEM-1 IMP-1 | K. pneumoniae; alone, KPN UFR77, beta-lactamases CMY-2 | K. pneumoniae; alone, KPN UFR79, beta-lactamases DHA-1 OXA-1
2 µg/mL: E. coli; ECO UFR74, beta-lactamases SHV-1 DHA-1, read-out: MIC | K. pneumoniae; alone, KPN 110376, beta-lactamases TEM-1, SHV-1, CTX-M-15 OXA-1 OXA-48 | K. pneumoniae; alone, KPN 190551, beta-lactamases TEM-1, SHV-1, CTX-M-15 OXA-1 | K. pneumoniae; alone, KPN 200047, beta-lactamases TEM-1, SHV-32, CTX-M-15 OXA-1 | K. pneumoniae; alone, KPN 200327, beta-lactamases TEM-1, SHV-1, CTX-M-15 OXA-1 | K. pneumoniae; alone, KPN 260376, beta-lactamases SHV-1, SHV-49 OXA-1 | K. pneumoniae; alone, KPN LIB, beta-lactamases SHV-11 OXA-48 | K. pneumoniae; alone, KPN UFR25, beta-lactamases TEM-1, SHV-11, CTX-M-15 OXA-162 | K. pneumoniae; alone, KPN UFR28, beta-lactamases TEM-1, SHV-1, CTX-M-15 OXA-1 OXA-232
0.5 µg/mL: E. coli; ECO UFR62, beta-lactamases TEM-1, CTX-M-9 KPC-2, read-out: MIC
< 0.25 µg/mL: S. marcescens [2]
32 µg/mL: K. pneumoniae; alone, KPN UFR81, beta-lactamases TEM-1, SHV-1 DHA-1 OXA-48 | M. morganii | P. mirabilis
> 32 µg/mL: K. pneumoniae; alone, KPN 260252, beta-lactamases TEM-1, SHV-11 KPC-3 | P. aeruginosa; PAE CIP107051, beta-lactamases TEM-24 | P. aeruginosa; PAE MUS, beta-lactamases OXA-20 OXA-18
1 µg/mL: E. coli; ECO UFR52, beta-lactamases TEM-1, SHV-12 IMP-8, read-out: MIC | E. coli; ECO UFR61O, beta-lactamases TEM-1 KPC-2, read-out: MIC | K. pneumoniae; alone, KPN UFR80, beta-lactamases SHV-11 DHA-1 OXA-1
8 µg/mL: K. pneumoniae; alone, KPN 190270, beta-lactamases TEM-1, SHV-76, CTX-M-15 OXA-1 | K. pneumoniae; alone, KPN 270077, beta-lactamases TEM-1, SHV-1, CTX-M-15 | K. pneumoniae; alone, KPN 6122012, beta-lactamases SHV-1 NDM-1 | K. pneumoniae; alone, KPN UFR24, beta-lactamases TEM-1, SHV-2, SHV-11 OXA-1 OXA-48 OXA-47 | K. pneumoniae; alone, KPN UFR66, beta-lactamases TEM-1, SHV-11, CTX-M-15 KPC-2 | K. pneumoniae; alone, KPN UFR68, beta-lactamases TEM-1, SHV-11, CTX-M-15 KPC-3
16 µg/mL: K. pneumoniae; alone, KPN 6299, beta-lactamases TEM-1, SHV-11 OXA-163 | K. pneumoniae; alone, KPN UFR43, beta-lactamases SHV-11, CTX-M-15 CMY-2 OXA-1 NDM-1 | K. pneumoniae; alone, KPN UFR65, beta-lactamases TEM-1, SHV-11 KPC-2 | S. marcescens [1]
